The structures appear in SMILES notation. “And” between values parts separate entries of the source, which are not always exact repeats. Identical values can stand only once.

The first assay has as its target PDE4. Kind of assay: Inhibition of PDE4, radioenzymatic phosphodiesterase assay. It is filed as biochemical, bovine. The note with it: Table 1, formula (III); 1 μM cyclic AMP. A digest of the protocol: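 PDE4 partially purified from bovine aortic media by 105,000 g centrifugation and anion-exchange chromatography with an NaCl gradient. Activity measured radioenzymatically: product nucleoside separated from nucleotides by anion exchange and counted by liquid scintillation.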
In general, IC50 refers to the point on the concentration scale where inhibition reaches its midpoint. On to `COc1cc2c(cc1OC)C(c1cccc3ccccc13)=NN(C)C(=O)C2` [IIIaa, 7,8-dimethoxy-3-methyl-1-(1-naphthyl)-3,5-dihydro-4H-2,3-benzodiazepin-4-one], for which the IC50 is 9.3 µM.
As for `COc1cc2c(cc1OC)C(c1ccc(I)cc1)=NN(C)C(=O)C2` [IIIah, 1-(4-iodophenyl)-7,8-dimethoxy-3-methyl-3,5-dihydro-4H-2,3-benzodiazepin-4-one], the IC50 is 3.1 µM.
`COc1cc2c(cc1OC)C(c1ccc(-c3cc(C(F)(F)F)cc(C(F)(F)F)c3)cc1)=NN(C)C(=O)C2` [IIIaw, 1-{4-[3,5-bis-(trifluoromethyl)phenyl]phenyl}-7,8-dimethoxy-3-methyl-3,5-dihydro-4H-2,3-benzodiazepin-4-one] showed an IC50 of 16 µM.
Take `CCCCCC#Cc1ccc(C2=NN(C)C(=O)Cc3cc(OC)c(OC)cc32)cc1` [IIIax, 1-[4-(heptyn-1-yl)phenyl]-7,8-dimethoxy-3-methyl-3,5-dihydro-4H-2,3-benzodiazepin-4-one]: the IC50 worked out at 7.8 µM. This IC50 lies about 2.1-fold lower than the previous one.
For `COc1cc2c(cc1OC)C(c1ccc(-c3cccc(C)c3)cc1)=NN(C)C(=O)C2` [IIIar, 7,8-dimethoxy-3-methyl-1-[4-(3-methylphenyl)phenyl]-3,5-dihydro-4H-2,3-benzodiazepin-4-one], the midpoint of inhibition, the IC50, lay at 2.9 µM.
`CCOc1cc2c(cc1OCC)C(c1cc3ccccc3s1)=NN(C)C(=O)C2` [IIIba, 1-(2-benzo[b]thienyl)-7,8-diethoxy-3-methyl-3,5-dihydro-4H-2,3-benzodiazepin-4-one] came in with an IC50 of 6.9 µM.

The same assay, now with this note: Table 1, formula (III); compound at 10 μM.
In the case of `CCN1N=C(c2ccccc2)c2cc(OC)c(OC)cc2CC1=O` [IIIag, 3-ethyl-7,8-dimethoxy-1-phenyl-3,5-dihydro-4H-2,3-benzodiazepin-4-one], the “PDE4 percentage inhibition at 10 μM” value was 36%.
On the same count and under the same terms, next, `CCCN1N=C(c2ccccc2)c2cc(OC)c(OC)cc2CC1=O` [IIIaf, 7,8-dimethoxy-1-phenyl-3-n-propyl-3,5-dihydro-4H-2,3-benzodiazepin-4-one]: 30%.

Still in this assay, the particulars now being: Table 2, formula (XXII); 1 μM cyclic AMP.
As for `CCOc1cc2c(cc1OCC)C(c1ccccc1)=NC(Cc1ccccc1)C(=O)N2` (stereo not drawn) [XXIIaj, 3-benzyl-7,8-diethoxy-5-phenyl-1,3-dihydro-2H-1,4-benzodiazepin-2-one], the IC50 worked out at 4.4 µM. This lies in the single-digit micromolar range.
On to `COc1cc2c(cc1OC)C(c1ccc(Br)cc1)=NCC(=O)N2` [XXIIaf, 5-(4-bromophenyl)-7,8-dimethoxy-1,3-dihydro-2H-1,4-benzodiazepin-2-one], for which 15 µM corresponded to half-maximal inhibition (IC50). Against the preceding molecule, the IC50 is about 3.4-fold higher.

Still in this assay, the particulars now being: Table 2, formula (XXII); compound at 10 μM.
Regarding `COc1cc2c(cc1OC)C(c1ccccc1)=N[C@@H](CCCCNC(C)=O)C(=O)N2` [XXIIax, (S)-N-[4-(7,8-dimethoxy-2-oxo-5-phenyl-2,3-dihydro-1H-1,4-benzodiazepin-3-yl)butyl]acetamide], the “PDE4 percentage inhibition at 10 μM” value is given as 6%.
As to `COc1cc2c(cc1OC)C(c1ccccc1)=NC(Cc1ccccc1)C(=O)N2` (stereo not drawn) [XXIIap, 3-benzyl-7,8-dimethoxy-5-phenyl-1,3-dihydro-2H-1,4-benzodiazepin-2-one], the “PDE4 percentage inhibition at 10 μM” value worked out at 36.10%.
On the same count and under the same terms, next, `O=C1CN=C(c2ccc(Br)cc2)c2ccc(Br)cc2N1` [XXIIab, 8-bromo-5-(4-bromophenyl)-1,3-dihydro-2H-1,4-benzodiazepin-2-one]: 10%.
`COc1cc2c(cc1OC)C(c1ccccc1)=N[C@@H](Cc1ccccc1)C(=O)N2` [XXIIau, (S)-3-benzyl-7,8-dimethoxy-5-phenyl-1,3-dihydro-2H-1,4-benzodiazepin-2-one]: the “PDE4 percentage inhibition at 10 μM” value came to 42.6%.
Same read-out and setting: next, `COc1cc2c(cc1OC)C(c1ccccc1Br)=NCC(=O)N2` [XXIIal, 5-(2-bromophenyl)-7,8-dimethoxy-1,3-dihydro-2H-1,4-benzodiazepin-2-one]: 23.9%.

Still in this assay, the particulars now being: Table 3, formula (II); 1 μM cyclic AMP.
Take `CCN1C(=O)CN=C(c2ccc(C#CCNC(=O)OC(C)(C)C)cc2)c2cc(OC)c(OC)cc21` [IIbo, tert-butyl 3-[4-(1-ethyl-7,8-dimethoxy-2-oxo-2,3-dihydro-1H-1,4-benzodiazepin-5-yl)phenyl]prop-2-ynylcarbamate]: the IC50 amounted to 2.92 µM.
The same measure, in the same setting: the same measure for `CCOc1cc2c(cc1OCC)N(Cc1ccccc1)C(=O)CN=C2c1ccccc1` [IIbj, 1-benzyl-7,8-diethoxy-5-phenyl-1,3-dihydro-2H-1,4-benzodiazepin-2-one]: 6.5 µM; for `CCN1C(=O)C(C(O)c2cccc(Br)c2)N=C(c2ccccc2)c2cc(OC)c(OC)cc21` (stereo not drawn) [IIch, 3-[(3-bromophenyl)(hydroxy)methyl]-1-ethyl-7,8-dimethoxy-5-phenyl-1,3-dihydro-2H-1,4-benzodiazepin-2-one]: 9.6 µM; for `CCN1C(=O)CN=C(c2cccc(Br)c2)c2cc(OC)c(OC)cc21` [IIbm, 5-(3-bromophenyl)-1-ethyl-7,8-dimethoxy-1,3-dihydro-2H-1,4-benzodiazepin-2-one]: 7.3 µM.
Take `COc1cc2c(cc1OC)N(C)C(=O)CN=C2c1cccc(-c2ccccc2)c1` [IIay, 5-(1,1′-biphenyl-3-yl)-7,8-dimethoxy-1-methyl-1,3-dihydro-2H-1,4-benzodiazepin-2-one]: the IC50 stood at 6.6 µM.
On the same count and under the same terms, next, `CCN1C(=O)C(Cc2ccccc2)N=C(c2ccccc2)c2cc(OC)c(OC)cc21` (stereo not drawn) [IIcq, 3-benzyl-1-ethyl-7,8-dimethoxy-5-phenyl-1,3-dihydro-2H-1,4-benzodiazepin-2-one]: 7.4 µM; `CCN1C(=O)CN=C(c2ccc(CCc3ccccc3)cc2)c2cc(OC)c(OC)cc21` [IIbu, 1-ethyl-7,8-dimethoxy-5-[4-(2-phenylethyl)phenyl]-1,3-dihydro-2H-1,4-benzodiazepin-2-one]: 12.4 µM and 18.7 µM.
The same measure, in the same setting: the same measure for `CCN1C(=O)C(Cc2ccccc2N)N=C(c2ccccc2)c2cc(OC)c(OC)cc21` (stereo not drawn) [IIca, 7,8-dimethoxy-1-ethyl-3-(2-aminobenzyl)-5-phenyl-1,3-dihydro-2H-1,4-benzodiazepin-2-one]: 2.5 µM.
Molecule `CCN1C(=O)C(C(O)(c2ccccc2)c2ccccc2)N=C(c2ccccc2)c2cc(OC)c(OC)cc21` (stereo not drawn) [IIby, 7,8-dimethoxy-3-(diphenylhydroxymethyl)-1-ethyl-5-phenyl-1,3-dihydro-2H-1,4-benzodiazepin-2-one] displayed an IC50 of 8.2 µM.
Take `COc1cccc(C2=NCC(=O)N(C)c3cc(OC)c(OC)cc32)c1` [IIal, 7,8-dimethoxy-5-(3-methoxyphenyl)-1-methyl-1,3-dihydro-1,4-benzodiazepin-2-one]: the midpoint of inhibition, the IC50, lay at 10 µM.
Same read-out and setting: the same measure for `CCOc1cc2c(cc1OCC)N(C)C(=O)CN=C2c1ccccc1` [IIbf, 7,8-diethoxy-1-methyl-5-phenyl-1,3-dihydro-2H-1,4-benzodiazepin-2-one]: 0.86 µM; for `CCN1C(=O)CN=C(c2ccc(-c3ccccc3)cc2)c2cc(OC)c(OC)cc21` [IIbp, 5-(1,1′-biphenyl-4-yl)-1-ethyl-7,8-dimethoxy-1,3-dihydro-2H-1,4-benzodiazepin-2-one]: 5.74 µM; for `CCN1C(=O)C(Cc2cccc(-c3ccccc3)c2)N=C(c2ccccc2)c2cc(OC)c(OC)cc21` (stereo not drawn) [IIcu, 3-(1,1′-biphenyl-3-ylmethyl)-1-ethyl-7,8-dimethoxy-5-phenyl-1,3-dihydro-2H-1,4-benzodiazepin-2-one]: 4.8 µM.
The same measure, in the same setting: next, `CCOc1cc2c(cc1OC)C(c1ccccc1)=NC(c1ccccc1)C(=O)N2CC` (stereo not drawn) [IIdk, 3,5-diphenyl-8-ethoxy-1-ethyl-7-methoxy-1,3-dihydro-2H-1,4-benzodiazepin-2-one]: 1.1 µM.

Staying with this assay, now noted: Table 3, formula (II); compound at 10 μM.
Consider `CCN1C(=O)C(C(Cc2ccc(Br)cc2)c2ccc(Br)cc2)N=C(c2ccccc2)c2cc(OC)c(OC)cc21` (stereo not drawn) [IIde, 3-[1,2-bis(4-bromophenyl)ethyl]-1-ethyl-7,8-dimethoxy-5-phenyl-1,3-dihydro-2H-1,4-benzodiazepin-2-one], for which the “PDE4 percentage inhibition at 10 μM” value was found to be 0%.
On the same count and under the same terms, the same measure for `CCN1C(=O)C(Cc2ccc(C)cc2)N=C(c2ccccc2)c2cc(OC)c(OC)cc21` (stereo not drawn) [IIdd, 1-ethyl-7,8-dimethoxy-3-(4-methylbenzyl)-5-phenyl-1,3-dihydro-2H-1,4-benzodiazepin-2-one]: 31.5%; for `COc1cc2c(cc1OC)N(C)C(=O)CN=C2CCc1ccccc1` [IIaz, 7,8-dimethoxy-1-methyl-5-(2-phenylethyl)-1,3-dihydro-2H-1,4-benzodiazepin-2-one]: 6.9%; for `COc1cc2c(cc1OC)N(C)C(=O)CN=C2c1ccco1` [IIah, 5-(2-furyl)-7,8-dimethoxy-1-methyl-1,3-dihydro-1,4-benzodiazepin-2-one]: 36%.
In the case of `COc1ccc2cc(C3=NCC(=O)N(C)c4cc(OC)c(OC)cc43)ccc2c1` [IIap, 7,8-dimethoxy-5-(6-methoxy-2-naphthyl)-1-methyl-1,3-dihydro-1,4-benzodiazepin-2-one], the “PDE4 percentage inhibition at 10 μM” value was 18%.
Consider `C=CCC1N=C(c2ccccc2)c2cc(OC)c(OC)cc2N(CC)C1=O` (stereo not drawn) [IIbs, 3-allyl-1-ethyl-7,8-dimethoxy-5-phenyl-1,3-dihydro-2H-1,4-benzodiazepin-2-one], for which the “PDE4 percentage inhibition at 10 μM” value is 38.8%.
For `COc1ccc(C2=NCC(=O)N(C)c3cc(OC)c(OC)cc32)cc1OC` [IIab, 7,8-dimethoxy-5-(3,4-dimethoxyphenyl)-1-methyl-1,3-dihydro-1,4-benzodiazepin-2-one], the “PDE4 percentage inhibition at 10 μM” value came out at 38%.
Still for that read-out and setting: next, `CCN1C(=O)C(C2(O)CCN(Cc3ccccc3)CC2)N=C(c2ccccc2)c2cc(OC)c(OC)cc21` (stereo not drawn) [IIcl, 3-(1-benzyl-4-hydroxypiperidin-4-yl)-1-ethyl-7,8-dimethoxy-5-phenyl-1,3-dihydro-2H-1,4-benzodiazepin-2-one]: 4.3%; `COc1cc2c(cc1OC)N(C)C(=O)CN=C2c1ccccc1C` [IIau, 7,8-dimethoxy-1-methyl-5-(2-methylphenyl)-1,3-dihydro-1,4-benzodiazepin-2-one]: 18.5%.
The same measure, in the same setting: next, `COc1cc2c(cc1OC)N(CCO)C(=O)CN=C2c1ccccc1` [IIcx, 7,8-dimethoxy-1-(2-hydroxyethyl)-5-phenyl-1,3-dihydro-2H-1,4-benzodiazepin-2-one]: 9.9%.
